What was measured:
rice flat sedge = test: Test Example 3: herbicidal effect by foliage application, Wagner pot (Table 18, symbol E); type: in vivo, rice flat sedge (Cyperus iria); settings: 320 g/ha
How it was run: (§1)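 Plants were sown in alluvial soil held under 0.1–0.5 cm standing water and grown 14 days in a greenhouse at 25–30 °C. An emulsifiable formulation, water-diluted to the set dose, was then sprayed onto the foliage, and effects were scored three weeks later using previously defined criteria.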

blackgrass [1] = test: Test Example 5: herbicidal effect by foliage application, plastic box (Table 20, symbol J); type: in vivo, blackgrass (Alopecurus myosuroides); settings: foliage application, 320 g/ha, 3 weeks after application
How it was run: (§2)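 Plants were sown into sterilized diluvial soil under about 1.5 cm cover and kept in a greenhouse at 25° C. to 30° C. Fourteen days on, foliage received an even spray of the diluted emulsion. Herbicidal or crop effect was judged three weeks afterwards.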

false cleavers [2] = test: Test Example 4: herbicidal effect by soil treatment (Table 19, symbol Q); type: in vivo, false cleavers (Galium spurium); settings: 320 g/ha
How it was run: (§3)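 Pre-emergence style soil spray: seeds under ~1.5 cm sterilized diluvial soil received a uniform coat of emulsion diluted to the predetermined herbicide amount. Greenhouse 25–30° C; readout at week three on previously defined criteria.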

barnyard grass [3] = test: Test Example 4: herbicidal effect by soil treatment (Table 19, symbol H); type: in vivo, barnyard grass (Echinochloa crus-galli); settings: 320 g/ha
How it was run: as §3

persian speedwell [4] = test: Test Example 5: herbicidal effect by foliage application, plastic box (Table 20, symbol R); type: in vivo, Persian speedwell (Veronica persica); settings: foliage application, 320 g/ha, 3 weeks after application
How it was run: as §2

oval-leafed pondweed = test: Test Example 2: herbicidal activity, application during weed generation under submerged conditions (Table 17, symbol C); type: in vivo, oval-leafed pondweed (Monochoria vaginalis); settings: AAH 320 g/ha; application during weed generation, submerged conditions
How it was run: (§4)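 In this pot test, flooded alluvial soil (water depth 4 cm) holds all three species sown as a mixture. Once seedlings have one to two leaves, the compound's emulsion, thinned with water to the intended dose, is poured on the water; grading follows after three weeks on the earlier criteria.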

lambsquarters [5] = test: Test Example 4: herbicidal effect by soil treatment (Table 19, symbol O); type: in vivo, lambsquarters (Chenopodium album); settings: 320 g/ha
How it was run: as §3

Chinese sprangletop = test: Test Example 3: herbicidal effect by foliage application, Wagner pot (Table 18, symbol D); type: in vivo, chinese sprangletop (Leptochloa chinensis); settings: 320 g/ha
How it was run: as §1

wild oat [6] = test: Test Example 4: herbicidal effect by soil treatment (Table 19, symbol I); type: in vivo, wild oat (Avena fatua); settings: 320 g/ha
How it was run: as §3

barnyard grass [7] = test: Test Example 3: herbicidal effect by foliage application, Wagner pot (Table 18, symbol H); type: in vivo, barnyard grass (Echinochloa crus-galli); settings: 320 g/ha
How it was run: as §1

chickweed = test: Test Example 4: herbicidal effect by soil treatment (Table 19, symbol P); type: in vivo, common chickweed (Stellaria media); settings: 320 g/ha
How it was run: as §3

velvetleaf [8] = test: Test Example 5: herbicidal effect by foliage application, plastic box (Table 20, symbol M); type: in vivo, velvetleaf (Abutilon theophrasti); settings: foliage application, 320 g/ha, 3 weeks after application
How it was run: as §2

southern crabgrass [9] = test: Test Example 5: herbicidal effect by foliage application, plastic box (Table 20, symbol F); type: in vivo, southern crabgrass (Digitaria ciliaris); settings: foliage application, 320 g/ha, 3 weeks after application
How it was run: as §2

Italian ryegrass [10] = test: Test Example 4: herbicidal effect by soil treatment (Table 19, symbol K); type: in vivo, Italian ryegrass (Lolium multiflorum); settings: 320 g/ha
How it was run: as §3

redroot pigweed = test: Test Example 4: herbicidal effect by soil treatment (Table 19, symbol N); type: in vivo, redroot pigweed (Amaranthus retroflexus); settings: 320 g/ha
How it was run: as §3

late watergrass = test: Test Example 2: herbicidal activity, application during weed generation under submerged conditions (Table 17, symbol A); type: in vivo, late watergrass (Echinochloa oryzicola); settings: AAH 320 g/ha; application during weed generation, submerged conditions
How it was run: as §4

velvetleaf [11] = test: Test Example 4: herbicidal effect by soil treatment (Table 19, symbol M); type: in vivo, velvetleaf (Abutilon theophrasti); settings: 320 g/ha
How it was run: as §3

wild oat [12] = test: Test Example 5: herbicidal effect by foliage application, plastic box (Table 20, symbol I); type: in vivo, wild oat (Avena fatua); settings: foliage application, 320 g/ha, 3 weeks after application
How it was run: as §2

lambsquarters [13] = test: Test Example 5: herbicidal effect by foliage application, plastic box (Table 20, symbol O); type: in vivo, lambsquarters (Chenopodium album); settings: foliage application, 320 g/ha, 3 weeks after application
How it was run: as §2

green foxtail [14] = test: Test Example 5: herbicidal effect by foliage application, plastic box (Table 20, symbol G); type: in vivo, green foxtail (Setaria viridis); settings: foliage application, 320 g/ha, 3 weeks after application
How it was run: as §2

southern crabgrass [15] = test: Test Example 4: herbicidal effect by soil treatment (Table 19, symbol F); type: in vivo, southern crabgrass (Digitaria ciliaris); settings: 320 g/ha
How it was run: as §3

barnyard grass [16] = test: Test Example 5: herbicidal effect by foliage application, plastic box (Table 20, symbol H); type: in vivo, barnyard grass (Echinochloa crus-galli); settings: foliage application, 320 g/ha, 3 weeks after application
How it was run: as §2

Italian ryegrass [17] = test: Test Example 5: herbicidal effect by foliage application, plastic box (Table 20, symbol K); type: in vivo, Italian ryegrass (Lolium multiflorum); settings: foliage application, 320 g/ha, 3 weeks after application
How it was run: as §2

green foxtail [18] = test: Test Example 4: herbicidal effect by soil treatment (Table 19, symbol G); type: in vivo, green foxtail (Setaria viridis); settings: 320 g/ha
How it was run: as §3

blackgrass [19] = test: Test Example 4: herbicidal effect by soil treatment (Table 19, symbol J); type: in vivo, blackgrass (Alopecurus myosuroides); settings: 320 g/ha
How it was run: as §3

Japanese bulrush = test: Test Example 2: herbicidal activity, application during weed generation under submerged conditions (Table 17, symbol B); type: in vivo, Japanese bulrush (Schoenoplectus juncoides); settings: AAH 320 g/ha; application during weed generation, submerged conditions
How it was run: as §4

false cleavers [20] = test: Test Example 5: herbicidal effect by foliage application, plastic box (Table 20, symbol Q); type: in vivo, false cleavers (Galium spurium); settings: foliage application, 320 g/ha, 3 weeks after application
How it was run: as §2

windgrass [21] = test: Test Example 4: herbicidal effect by soil treatment (Table 19, symbol L); type: in vivo, windgrass (Apera spica-venti); settings: 320 g/ha
How it was run: as §3

persian speedwell [22] = test: Test Example 4: herbicidal effect by soil treatment (Table 19, symbol R); type: in vivo, Persian speedwell (Veronica persica); settings: 320 g/ha
How it was run: as §3

windgrass [23] = test: Test Example 5: herbicidal effect by foliage application, plastic box (Table 20, symbol L); type: in vivo, windgrass (Apera spica-venti); settings: foliage application, 320 g/ha, 3 weeks after application
How it was run: as §2

`CCCC(=O)Oc1c(C)nn(C)c(=O)c1-c1c(-c2ccc(F)cc2)sc2ccc(F)cc12` [2-002] was tested, and the “herbicidal effect on E (rice flat sedge), rating 0-5” value (rice flat sedge) was 5 (Herbicidal rate of 90% or more (almost completely withered)), the “effect on blackgrass (J)” value (blackgrass [1]) was 4 (Herbicidal rate of 70% or more and less than 90%) and the “herbicidal effect rating, Q: false cleavers” value (false cleavers [2]) was 4 (Herbicidal rate of 70% or more and less than 90%). For the same compound, the “herbicidal effect rating, H: barnyard grass” value (barnyard grass [3]) was 4 (Herbicidal rate of 70% or more and less than 90%), the “effect on persian speedwell (R)” value (persian speedwell [4]) was 5 (Herbicidal rate of 90% or more (almost completely withered)) and the “herbicidal effect rating, C: oval-leafed pondweed” value (oval-leafed pondweed) was 3 (Herbicidal rate of 40% or more and less than 70%). For the same compound, the “herbicidal effect rating, O: lambsquarters” value (lambsquarters [5]) was 4 (Herbicidal rate of 70% or more and less than 90%), the “herbicidal effect on D (Chinese sprangletop), rating 0-5” value (Chinese sprangletop) was 5 (Herbicidal rate of 90% or more (almost completely withered)) and the “herbicidal effect rating, I: wild oat” value (wild oat [6]) was 3 (Herbicidal rate of 40% or more and less than 70%). For the same compound, the “herbicidal effect on H (barnyard grass), rating 0-5” value (barnyard grass [7]) was 5 (Herbicidal rate of 90% or more (almost completely withered)), the “herbicidal effect rating, P: chickweed” value (chickweed) was 3 (Herbicidal rate of 40% or more and less than 70%) and the “effect on velvetleaf (M)” value (velvetleaf [8]) was 5 (Herbicidal rate of 90% or more (almost completely withered)). The “effect on southern crabgrass (F)” value (southern crabgrass [9]) was 5 (Herbicidal rate of 90% or more (almost completely withered)), the “herbicidal effect rating, K: Italian ryegrass” value (Italian ryegrass [10]) was 5 (Herbicidal rate of 90% or more (almost completely withered)) and the “herbicidal effect rating, N: redroot pigweed” value (redroot pigweed) was 5 (Herbicidal rate of 90% or more (almost completely withered)). For the same compound, the “herbicidal effect rating, A: late watergrass” value (late watergrass) was 2 (Herbicidal rate of 20% or more and less than 40%), the “herbicidal effect rating, M: velvetleaf” value (velvetleaf [11]) was 5 (Herbicidal rate of 90% or more (almost completely withered)) and the “effect on wild oat (I)” value (wild oat [12]) was 4 (Herbicidal rate of 70% or more and less than 90%). The “effect on lambsquarters (O)” value (lambsquarters [13]) was 5 (Herbicidal rate of 90% or more (almost completely withered)), the “effect on green foxtail (G)” value (green foxtail [14]) was 5 (Herbicidal rate of 90% or more (almost completely withered)) and the “herbicidal effect rating, F: southern crabgrass” value (southern crabgrass [15]) was 5 (Herbicidal rate of 90% or more (almost completely withered)). The “effect on barnyard grass (H)” value (barnyard grass [16]) was 5 (Herbicidal rate of 90% or more (almost completely withered)), the “effect on Italian ryegrass (K)” value (Italian ryegrass [17]) was 5 (Herbicidal rate of 90% or more (almost completely withered)) and the “herbicidal effect rating, G: green foxtail” value (green foxtail [18]) was 5 (Herbicidal rate of 90% or more (almost completely withered)). The “herbicidal effect rating, J: blackgrass” value (blackgrass [19]) was 1 (Herbicidal rate of 5% or more and less than 20%), the “herbicidal effect rating, B: Japanese bulrush” value (Japanese bulrush) was 0 (Herbicidal rate of 5% or less (almost no effect)) and the “effect on false cleavers (Q)” value (false cleavers [20]) was 5 (Herbicidal rate of 90% or more (almost completely withered)). For the same compound, the “herbicidal effect rating, L: windgrass” value (windgrass [21]) was 1 (Herbicidal rate of 5% or more and less than 20%), the “herbicidal effect rating, R: persian speedwell” value (persian speedwell [22]) was 5 (Herbicidal rate of 90% or more (almost completely withered)) and the “effect on windgrass (L)” value (windgrass [23]) was 3 (Herbicidal rate of 40% or more and less than 70%).
